Laboratory results taken from ChEMBL document CHEMBL1201862, “PubChem BioAssay data set” (2004).
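In this assay, cells in 96-well plates receive the compound at five concentrations for 48 hours. Endpoints are linearly interpolated between the surrounding concentrations. At the GI50, growth is halved.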 Calls of active or inactive are those of the source. Rule as the data show it: active = GI50 up to about 1.1 µM and inactive = higher.

Legend:
Test in all cases: NCI anticancer screen, dose series, 48 h
[1] = system: CCRF-CEM
[2] = system: EKVX
[3] = system: HCC 2998
[4] = system: HCT-116
[5] = system: HCT-15
[6] = system: HOP-62
[7] = system: IGROV-1
[8] = system: K562
[9] = system: M14
[10] = system: OVCAR-8
[11] = system: RPMI-8226
[12] = system: RXF 393
[13] = system: SF-295
[14] = system: SK-MEL-28
[15] = system: SK-OV-3
[16] = system: SR
[17] = system: U-251
[18] = system: UACC-257
[19] = system: OVCAR-4
[20] = system: TK-10

Measured: GI50

CCC1OC(=O)CC(O)C(C)C(OC2OC(C)CC(N(C)C)C2O)C(CC=O)CC(C)C(=O)/C=C/C2(C)OC2C1C (stereo unspecified)
18.3 µM: [5]
inactive: [1] 4.91 µM | [2] 15.6 µM | [3] > 100 µM | [4] 15.8 µM | [6] 25.2 µM | [7] 10.3 µM | [8] 6.76 µM | [9] 31 µM | [10] 22.4 µM | [11] 27 µM | [12] 17.2 µM | [13] 29 µM | [14] 21.4 µM | [15] 27.2 µM | [16] 13.9 µM | [17] 14.8 µM | [18] > 100 µM

Cc1ccnc(NS(=O)(=O)c2ccc(NC3=CC(=O)C(=O)c4ccccc43)cc2)n1
> 100 µM: [5]
inactive: [1] > 100 µM | [2] > 100 µM | [3] > 100 µM | [4] > 100 µM | [6] > 100 µM | [7] > 100 µM | [8] > 100 µM | [9] > 100 µM | [19] > 100 µM | [10] > 100 µM | [12] > 100 µM | [13] > 100 µM | [14] > 100 µM | [15] > 100 µM | [16] > 100 µM | [20] > 100 µM | [17] > 100 µM | [18] > 100 µM

Clc1cc(Cc2cc(Cl)c(Cl)c3c2OCOC3)c2c(c1Cl)COCO2
> 100 µM: [5]
inactive: [1] 30.1 µM | [3] > 100 µM | [4] 36.4 µM | [6] 25.8 µM | [7] 40.6 µM | [8] 43.9 µM | [9] 38.4 µM | [19] 18.7 µM | [10] 36.8 µM | [11] 33.4 µM | [12] 31.7 µM | [13] 26.2 µM | [14] > 100 µM | [15] 23.3 µM | [16] 55.2 µM | [20] 29.9 µM | [17] 29.1 µM | [18] 94 µM

C/C(=N\O)c1ccc(OCc2cc(C(F)(F)F)cc(C(F)(F)F)c2)cc1
inactive: [1] 15.9 µM | [2] 78.5 µM | [3] 32.1 µM | [4] 31.3 µM | [6] 50.1 µM | [7] 75 µM | [8] 33 µM | [9] 41 µM | [19] 53.8 µM | [10] 41.9 µM | [12] 21.8 µM | [13] 55.2 µM | [14] 61.9 µM | [15] > 100 µM | [16] 39.4 µM | [20] > 100 µM | [17] 34.4 µM | [18] 38.5 µM
30.5 µM: [5]

Cc1csc(CP(=O)(OC(C)C)OC(C)C)n1
> 100 µM: [5]
inactive: [2] > 100 µM | [3] > 100 µM | [4] > 100 µM | [6] > 100 µM | [7] > 100 µM | [8] > 100 µM | [9] > 100 µM | [19] > 100 µM | [10] > 100 µM | [11] > 100 µM | [12] > 100 µM | [13] > 100 µM | [14] > 100 µM | [15] > 100 µM | [16] > 100 µM | [20] > 100 µM | [17] > 100 µM | [18] > 100 µM

CC(=O)Oc1cc(C)c2c(c1OC(C)=O)CC1(O2)[C@@H](C)CCC2[C@@]3(C)CC[C@H](OC(C)=O)C(C)(C)C3CC[C@]21C (stereo partly specified)
3.53 µM: [5]
inactive: [2] 3.69 µM | [3] 5.42 µM | [4] 4.19 µM | [6] 2.65 µM | [7] 2.01 µM | [9] 6.08 µM | [19] > 10 µM | [10] 3.01 µM | [11] 3.83 µM | [12] 1.26 µM | [13] 5.01 µM | [14] 4.41 µM | [15] 5.36 µM | [16] 3.03 µM | [20] 3.61 µM | [17] 3.33 µM | [18] 5.97 µM

COC(=O)c1ccccc1/C=C1/Cc2ccccc2C1=O
23.4 µM: [5]
inactive: [1] 31.3 µM | [2] 63.2 µM | [3] > 100 µM | [4] 24.4 µM | [6] 98.4 µM | [7] 27.3 µM | [8] 32.7 µM | [19] 34.4 µM | [10] 47.1 µM | [11] 22 µM | [12] 54.6 µM | [13] 44.1 µM | [14] 65.5 µM | [15] > 100 µM | [16] 22.2 µM | [20] > 100 µM | [17] 29.7 µM | [18] 24 µM
